Source: patent US8859541B2, “6-alkynylpyridines” (Boehringer Ingelheim International GmbH, priority 2012, dated 2014)
pIC50: −log10 of the molar value.

Biological target: T1, XIAP BIR3 (Homo sapiens, UniProt P98170)
T1 construct: covering amino acids 241 to 356; XIAP BIR3; made in house; host or cells: E. coli
Assay: XIAP BIR3 binding assay (DELFIA), displacement of SMAC peptide
Details: GST-fusion BIR3 domain (aa 241 to 356) 10 nM, SMAC peptide 10 nM; activity of the (S)-isomers
Protocol: Biological Methods XIAP BIR3 and cIAP1 BIR3 Binding Assays (DELFIA)
Peptide […]-Lys(Biotin), representing the N-terminus of mature human SMAC (SMAC peptide), was used as interaction partner in the protein-peptide interaction assay.
BIR3 domains (10 nM) were incubated with SMAC peptide (10 nM) in Assay Buffer (50 mM Tris, 120 mM NaCl, 0.1% BSA, 1 mM DTT, 0.05% TritonX100) for one hour at room temperature in the presence of inhibitiory compounds. The assay mixture was transferred to a strepatvidin coated plate and incubated for one hour at room temperature to allow binding of the biotinylated peptide and associated BIR3 domains to the plate. After several washing steps Eu labeled anti-GST antibody (e.g. Perkin Elmer DELFIA Eu-N1-antiGST AD0250) was added to detect BIR3 domain-SMAC peptide interactions according to Perkin Elmer's instructions. […] Time resolved Europium fluoresecence was measured in a Wallac Victor using Standard assay settings.
DELFIA assay results were plotted against compound concentrations and Software GraphPad Prizm was used to calculate half maximal inhibitory concentrations (IC50 values).

T1 sequence (P98170 241-356): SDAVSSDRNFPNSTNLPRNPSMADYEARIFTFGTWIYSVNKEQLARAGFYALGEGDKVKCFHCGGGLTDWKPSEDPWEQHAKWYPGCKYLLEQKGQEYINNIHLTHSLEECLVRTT

pIC50 | Structure (SMILES)
6.28 | CC(N)C(=O)Nc1ccc(-c2cccc(C(=O)O)c2)c(C#Cc2ccccc2)n1 (stereo not shown) [Example 99, 3-[6-(2-aminopropanoylamino)-2-(2-phenylethynyl)pyridin-3-yl]-benzoic acid]
6.89 | CC(N)C(=O)Nc1ccc(-c2cccnc2)c(C#Cc2ccccc2)n1 (stereo not shown) [Example 101, 2-amino-N-[6-(2-phenylethynyl)-5-pyridin-3-ylpyridin-2-yl]-propanamide]
5.70 | CC(N)C(=O)Nc1ccc(-c2ccccc2F)c(C#Cc2ccccc2)n1 (stereo not shown) [Example 102, 2-amino-N-[5-(2-fluorophenyl)-6-(2-phenylethynyl)pyridin-2-yl]-propanamide]
5.52 | CC(N)C(=O)Nc1ccc(-c2c(Cl)cccc2Cl)c(C#Cc2ccccc2)n1 (stereo not shown) [Example 103, 2-amino-N-[5-(2,6-dichlorophenyl)-6-(2-phenyl-ethynyl)pyridin-2-yl]propanamide]
5.69 | Cc1cccc(C)c1-c1ccc(NC(=O)C(C)N)nc1C#Cc1ccccc1 (stereo not shown) [Example 104, 2-amino-N-[5-(2,6-dimethyl-phenyl)-6-(2-phenylethynyl)-pyridin-2-yl]propanamide]
6.66 | CC(N)C(=O)Nc1ccc(-c2cncnc2)c(C#Cc2ccccc2)n1 (stereo not shown) [Example 105, 2-amino-N-[6-(2-phenylethynyl)-5-pyrimidin-5-ylpyridin-2-yl]-propanamide]
6.61 | CC(N)C(=O)Nc1ccc(-c2cncc(F)c2)c(C#Cc2ccccc2)n1 (stereo not shown) [Example 106, 2-amino-N-[5-(5-fluoropyridin-3-yl)-6-(2-phenylethynyl)pyridin-2-yl]propanamide]
5.99 | CC(N)C(=O)Nc1ccc(-c2ccccc2)c(C#Cc2ccccc2)n1 (stereo not shown) [Example 107, 2-amino-N-[5-phenyl-6-(2-phenylethynyl)pyridin-2-yl]-propanamide]
6.19 | CC(N)C(=O)Nc1ccc(-c2ccccc2C#N)c(C#Cc2ccccc2)n1 (stereo not shown) [Example 109, 2-amino-N-[5-(2-cyanophenyl)-6-(2-phenylethynyl)pyridin-2-yl]-propanamide]
5.50 | CC(N)C(=O)Nc1ccc(-c2ccccc2C(F)(F)F)c(C#Cc2ccccc2)n1 (stereo not shown) [Example 110, 2-amino-N-[6-(2-phenylethynyl)-5-[2-(trifluoromethyl)phenyl]-pyridin-2-yl]propanamide]
5.81 | CC(N)C(=O)Nc1ccc(-c2cc(F)cc(F)c2)c(C#Cc2ccccc2)n1 (stereo not shown) [Example 111, 2-amino-N-[5-(3,5-difluorophenyl)-6-(2-phenyl-ethynyl)pyridin-2-yl]propanamide]
5.97 | CC(N)C(=O)Nc1ccc(-c2ccc(-c3ccc(F)cc3)nc2)c(C#Cc2ccccc2)n1 (stereo not shown) [Example 112, 2-amino-N-[5-[6-(4-fluorophenyl)pyridin-3-yl]-6-(2-phenylethynyl)pyridin-2-yl]-propanamide]
5.79 | CC(N)C(=O)Nc1ccc(-c2cccc(F)c2)c(C#Cc2ccccc2)n1 (stereo not shown) [Example 114, 2-amino-N-[5-(3-fluorophenyl)-6-(2-phenylethynyl)pyridin-2-yl]-propanamide]
5.69 | CC(N)C(=O)Nc1ccc(-c2cc(F)cc(C(F)(F)F)c2)c(C#Cc2ccccc2)n1 (stereo not shown) [Example 115, 2-amino-N-[5-[3-fluoro-5-(trifluoromethyl)phenyl]-6-(2-phenylethynyl)pyridin-2-yl]-propanamide]
5.75 | CNC(C)C(=O)Nc1ccc(-c2ccccc2Cl)c(C#Cc2ccccc2)n1 (stereo not shown) [Example 116, N-[5-(2-chlorophenyl)-6-(2-phenylethynyl)pyridin-2-yl]-2-(methylamino)propanamide]
6.39 | CNC(C)C(=O)Nc1ccc(-c2cc(C#N)ccc2Cl)c(C#Cc2ccccc2)n1 (stereo not shown) [Example 117, N-[5-(2-chloro-5-cyanophenyl)-6-(2-phenylethynyl)pyridin-2-yl]-2-(methylamino)propanamide]
6.49 | CNC(C)C(=O)Nc1ccc(Cc2ccccc2)c(C#Cc2ccccc2)n1 (stereo not shown) [Example 119, N-[5-benzyl-6-(2-phenylethynyl)pyridin-2-yl]-2-(methylamino)-propan-amide]
6.73 | CNC(C)C(=O)Nc1ccc(-c2cncc(C(=O)O)c2)c(C#Cc2ccccc2)n1 (stereo not shown) [Example 120, 5-[6-[[2-(methylamino)-propanoyl]amino]-2-(2-phenyl-ethynyl)pyridin-3-yl]pyridine-3-carboxylic acid]
5.55 | CCc1ccccc1-c1ccc(NC(=O)C(C)NC)nc1C#Cc1ccccc1 (stereo not shown) [Example 124, N-[5-(2-ethylphenyl)-6-(2-phenyl-ethynyl)pyridin-2-yl]-2-(methyl-amino)propanamide]

pIC50 | Structure (SMILES)
7.00 | CNC(C)C(=O)Nc1ccc(-c2cncc(N)c2)c(C#Cc2ccccc2)n1 (stereo not shown) [Example 128, N-[5-(5-aminopyridin-3-yl)-6-(2-phenylethynyl)pyridin-2-yl]-2-(methylamino)propanamide]
6.52 | CNC(C)C(=O)Nc1ccc(-c2cc(C(=O)OC)ccc2OC)c(C#Cc2ccccc2)n1 (stereo not shown) [Example 131, methyl 4-methoxy-3-[6-[[2-(methylamino)propanoyl]amino]-2-(2-phenylethynyl)pyridin-3-yl]-benzoate]
6.85 | CNC(C)C(=O)Nc1ccc(-c2cc(C(=O)OC)cc([N+](=O)[O-])c2)c(C#Cc2ccccc2)n1 (stereo not shown) [Example 133, methyl 3-[6-[[2-(methylamino)-propanoyl]amino]-2-(2-phenyl-ethynyl)pyridin-3-yl]-5-nitrobenzoate]
6.24 | CNC(C)C(=O)Nc1ccc(-c2ccc(C)c(C(=O)OC)c2)c(C#Cc2ccccc2)n1 (stereo not shown) [Example 134, methyl 2-methyl-5-[6-[[2-(methylamino)propanoyl]amino]-2-(2-phenylethynyl)pyridin-3-yl]-benzoate]
6.31 | CC(N)C(=O)Nc1ccc(-c2cccc3cccnc23)c(C#Cc2ccccc2)n1 (stereo not shown) [Example 135, 2-amino-N-[6-(2-phenylethynyl)-5-quinolin-8-ylpyridin-2-yl]-propanamide]
5.98 | CNC(C)C(=O)Nc1ccc(-c2sc(-c3ccccc3)nc2C)c(C#Cc2ccccc2)n1 (stereo not shown) [Example 136, 2-(methylamino)-N-[5-(4-methyl-2-phenyl-1,3-thiazol-5-yl)-6-(2-phenylethynyl)pyridin-2-yl]-propanamide]
6.81 | CNC(C)C(=O)Nc1ccc(-c2cccc3[nH]ncc23)c(C#Cc2ccccc2)n1 (stereo not shown) [Example 137, N-[5-(1H-indazol-4-yl)-6-(2-phenylethynyl)pyridin-2-yl]-2-(methylamino)propanamide]
5.85 | CNC(C)C(=O)Nc1ccc(-c2cccc(F)c2F)c(C#Cc2ccccc2)n1 (stereo not shown) [Example 139, N-[5-(2,3-difluorophenyl)-6-(2-phenylethynyl)pyridin-2-yl]-2-(methylamino)propanamide]
5.70 | CNC(C)C(=O)Nc1ccc(-c2cccc(C(F)(F)F)c2OC)c(C#Cc2ccccc2)n1 (stereo not shown) [Example 140, N-[5-[2-methoxy-3-(trifluoromethyl)phenyl]-6-(2-phenylethynyl)pyridin-2-yl]-2-(methylamino)propanamide]
6.25 | CNC(C)C(=O)Nc1ccc(-c2cccc(C(=O)O)c2OC)c(C#Cc2ccccc2)n1 (stereo not shown) [Example 141]
6.30 | CNC(C)C(=O)Nc1ccc(-c2cccc3c2ccn3C)c(C#Cc2ccccc2)n1 (stereo not shown) [Example 142, 2-(methylamino)-N-[5-(1-methylindol-4-yl)-6-(2-phenyl-ethynyl)pyridin-2-yl]propanamide]
6.41 | CNC(C)C(=O)Nc1ccc(-c2cccc3ncccc23)c(C#Cc2ccc(C)cc2)n1 (stereo not shown) [Example 143, 2-(methylamino)-N-[6-[2-(4-methylphenyl)ethynyl]-5-quinolin-5-ylpyridin-2-yl]propan-amide]
6.40 | CNC(C)C(=O)Nc1ccc(-c2cccc3cnccc23)c(C#Cc2ccc(C)cc2)n1 (stereo not shown) [Example 144, N-[5-isoquinolin-5-yl-6-[2-(4-methylphenyl)ethynyl]pyridin-2-yl]-2-(methylamino)propanamide]
6.59 | CNC(C)C(=O)Nc1ccc(-c2ccc(F)nc2)c(C#Cc2ccccc2)n1 (stereo not shown) [Example 146, N-[5-(6-fluoropyridin-3-yl)-6-(2-phenylethynyl)pyridin-2-yl]-2-(methylamino)propanamide]
6.38 | CNC(C)C(=O)Nc1ccc(-c2cnccc2C#N)c(C#Cc2ccc(C)cc2)n1 (stereo not shown) [Example 148, N-[5-(4-cyanopyridin-3-yl)-6-[2-(4-methylphenyl)ethynyl]pyridin-2-yl]-2-(methylamino)propan-amide]
5.61 | CNC(C)C(=O)Nc1ccc(-c2cccc(-c3ccccc3)c2)c(C#Cc2ccccc2)n1 (stereo not shown) [Example 150, 2-(methylamino)-N-[6-(2-phenyl-ethynyl)-5-(3-phenylphenyl)-pyridin-2-yl]propanamide]
6.49 | CNC(C)C(=O)Nc1ccc(-c2ccc(C(=O)OC)nc2)c(C#Cc2cc(F)cc(F)c2)n1 (stereo not shown) [Example 151, methyl 5-[2-[2-(3,5-difluorophenyl)ethynyl]-6-[[2-(methylamino)propanoyl]amino]-pyridin-3-yl]pyridine-2-carboxylate]
6.37 | CNC(C)C(=O)Nc1ccc(-c2ccnc3ccccc23)c(C#Cc2cc(F)cc(F)c2)n1 (stereo not shown) [Example 152, N-[6-[2-(3,5-difluorophenyl)-ethynyl]-5-quinolin-4-ylpyridin-2-yl]-2-(methylamino)propanamide]
